Converted amounts (≈) assume the structure as drawn. Where two headings read alike, the source gives them in different places.
Tests used:
[1] = system: late-stage gametocytes (PfLGc), NF54-PfS16-GFP-Luc; assay: Antigametocytic luciferase reporter assay, late stage; details: Plasmodium falciparum; for inhibition at 1 µM / inhibition at 5 µM: NF54, 48 h; for inhibition at 1 µM: read-out: Late gametocytes (LG) % activity, 1.0 µM; for inhibition at 5 µM: read-out: Late gametocytes (LG) % activity, 5.0 µM
Source text: (§1) In vitro Antigametocytic Activity Assay. Gametocytes were produced as per the method reported by Reader and co-workers.3 The luciferase reporter assay was used to enable accurate, reliable and quantifiable investigations of the stage-specific action of gametocytocidal compounds for the early and late gametocyte marker cell line NF54-PfS16-GFP-Luc.
(§2) (representing >90% of either early stage II/III or mature/late stage IV/V gametocytes, respectively). […]
(§3) h drug pressure in a gas chamber (90% N 2, 5% O 2, and 5% CO 2) at 37 °C. Luciferase activity was determined in 30 µl parasite lysates by adding 30 µl luciferin substrate (Promega Luciferase Assay System) at room temperature and detection of resultant bioluminescence at an integration constant of 10s with the GloMax® Explorer Detection System with Instinct® Software. […]
(§4) µM) and internal project specific controls were included as controls. The dual point screens were performed as technical triplicates for a single biological assay.

[2] = system: immature-stage gametocytes (PfiGc), NF54-PfS16-GFP-Luc; assay: Antigametocytic luciferase reporter assay, immature/early stage; details: Plasmodium falciparum; for inhibition at 1 µM / inhibition at 5 µM: NF54, 48 h; for inhibition at 1 µM: read-out: Early gametocytes (EG) % activity, 1.0 µM; for inhibition at 5 µM: read-out: Early gametocytes (EG) % activity, 5.0 µM
[3] = system: late-stages (IV – V) gametocytes; assay: microbe, parasite or virus in culture; details: Plasmodium falciparum
Source text: as §1, §2, §3, §4

P. berghei = details: in vivo, po
Procedure: In vivo Antiplasmodium Assay (Swiss TPH).
described,5 with the modification that mice (n = 3) were infected with a GFP -transfected P. berghei
ANKA strain (donated by A. P. Waters and C. J. Janse, Leiden University, The Netherlands), and
parasitemia was determined using standard flow cytometry techniques. The detection limit was 1
parasite in 1000 erythrocytes (that is, 0.1%). The activity was calculated as the difference between
the mean percent parasitemia for the control and treated groups expressed as a percent relative to the
control group. Compounds were dissolved or suspended in a vehicle consisting of 70% Tween -80
and 30% ethanol, followed by a 10 -fold dilution in H 2O and oral administration as four consecutive
Blood samples for the quadruple -dose regimens
The survival time in days was also recorded up to 30
days after infection. A compound was considered curative if the animal survived to day 30 after
infection with no detectable parasites by slide reading .

[4] = Turbidimetric kinetic aqueous solubility; assay type: physicochemical; details: turbidimetric method, PBS pH 7.4, read-out: Sol. (solubility)
Procedure: Aqueous Solubility. Solubility was measured from amorphous solid forms of the compounds using the turbidimetric method. Following the dissolution of test compound in DMSO to make a 10 mM stock solution, a pre-dilution plate was prepared by taking from each stock solution and serially […]
pre-dilution solution, secondary dilutions of the compounds in both DMSO and 0.01M pH 7.4 PBS were prepared in triplicate on a second 96-well plate. Wells in columns 1-6 would contain […]
(§5) nominal concentrations as those in DMSO. The final volume of solvent in each assay plate was 200 µl, prepared by pipetting 4 µl each of solution from the pre-dilution plate to the corresponding well into both DMSO and PBS (both 196 µL). This ensures that the final concentration of DMSO in the […]
(§6) Similarly, a second secondary plate containing
(§7) Different concentrations in DMSO were prepared as controls to determine false turbidimetric absorbance readings arising from the compounds in solution absorbing incident radiation at the test wavelength. Following preparation, the assay plate was covered and left to equilibrate for 2 h at 25 °C. Afterwards, UV-vis absorbance readings from the plate were measured at 620 nm using a SpectraMax 340PC384 microplate reader. Plots of corrected absorbance against compound concentration were computed for a graphical representation of the data using MS Excel. Reserpine and hydrocortisone were used as positive and negative controls, respectively.
(§8) In vitro Antiplasmodium Assay. The compounds were tested using the modified [3H]-hypoxanthine incorporation assay, as previously reported.1
(§9) In vitro Cytotoxicity Assay. Compounds were screened against Chinese Hamster Ovarian (CHO) mammalian cell lines, using the 3-(4,5-dimethylthiazol-2-yl)-2,5-diphenyltetrazoliumbromide […]
It was prepared to 2 mg/ml in distilled water, while the stock solutions of test compounds were prepared to 20 mg/ml in DMSO (100%), […]
lowest being 0.001 µg/ml. […]
of cell suspension in each well and developed afterward by adding 25 µl of sterile MTT (Thermo

hERG K+ channel = biological target: T1, hERG K+ channel (Homo sapiens, UniProt Q12809); assay: QPatch hERG assay; assay type: cell-based; details: CHO K1 cells stably expressing hERG
T1 construct: host or cells: CHO K1 (ATCC), stably expressing hERG
Procedure: In vitro Liver-stage Assay (P. berghei-sporozoite Infection). In a 24-well plate, HepG2 was seeded
employed as reference drugs. Negative control wells received medium only.
cells were trypsinized and the percentage (%) of infected cells was determined by flow cytometry
(BD LSRFortessa) using at least 10000 events. For determining host cell viability, in a 96-well plate,
h of incubation, a volume 100 µl of medium containing drugs was added and further incubated at 37
°C. Negative control wells received medium only and positive wells received gentian violet. After
Drugs were tested in five different concentrations, each one in

[5] = system: drug sensitive (NF54) strain of Pf; assay: In vitro antiplasmodium assay, [3H]-hypoxanthine incorporation, NF54; assay type: cell-based, Plasmodium falciparum; details: for IC50: mean n ≥ 2
Procedure: All target compounds were evaluated for their antiplasmodium activity against the drug sensitive (NF54) strain of Pf and for turbidimetric kinetic solubility.
Aqueous Solubility. Solubility was measured from amorphous solid forms of the compounds using the turbidimetric method. Following the dissolution of test compound in DMSO to make a 10 mM stock solution, a pre-dilution plate was prepared by taking from each stock solution and serially diluting in triplicate to yield concentrations from 0.25 mM to 10.0 mM on a 96 well plate. From each pre-dilution solution, secondary dilutions of the compounds in both DMSO and 0.01M pH 7.4 PBS were prepared in triplicate on a second 96-well plate. Wells in columns 1-6 would contain […]
as §5, §6, §7, §8, §9

[6] = system: PfK1 multidrug resistant strain; assay: microbe, parasite or virus in culture; assay type: cell-based, Plasmodium falciparum

T1 sequence (Q12809 whole entry): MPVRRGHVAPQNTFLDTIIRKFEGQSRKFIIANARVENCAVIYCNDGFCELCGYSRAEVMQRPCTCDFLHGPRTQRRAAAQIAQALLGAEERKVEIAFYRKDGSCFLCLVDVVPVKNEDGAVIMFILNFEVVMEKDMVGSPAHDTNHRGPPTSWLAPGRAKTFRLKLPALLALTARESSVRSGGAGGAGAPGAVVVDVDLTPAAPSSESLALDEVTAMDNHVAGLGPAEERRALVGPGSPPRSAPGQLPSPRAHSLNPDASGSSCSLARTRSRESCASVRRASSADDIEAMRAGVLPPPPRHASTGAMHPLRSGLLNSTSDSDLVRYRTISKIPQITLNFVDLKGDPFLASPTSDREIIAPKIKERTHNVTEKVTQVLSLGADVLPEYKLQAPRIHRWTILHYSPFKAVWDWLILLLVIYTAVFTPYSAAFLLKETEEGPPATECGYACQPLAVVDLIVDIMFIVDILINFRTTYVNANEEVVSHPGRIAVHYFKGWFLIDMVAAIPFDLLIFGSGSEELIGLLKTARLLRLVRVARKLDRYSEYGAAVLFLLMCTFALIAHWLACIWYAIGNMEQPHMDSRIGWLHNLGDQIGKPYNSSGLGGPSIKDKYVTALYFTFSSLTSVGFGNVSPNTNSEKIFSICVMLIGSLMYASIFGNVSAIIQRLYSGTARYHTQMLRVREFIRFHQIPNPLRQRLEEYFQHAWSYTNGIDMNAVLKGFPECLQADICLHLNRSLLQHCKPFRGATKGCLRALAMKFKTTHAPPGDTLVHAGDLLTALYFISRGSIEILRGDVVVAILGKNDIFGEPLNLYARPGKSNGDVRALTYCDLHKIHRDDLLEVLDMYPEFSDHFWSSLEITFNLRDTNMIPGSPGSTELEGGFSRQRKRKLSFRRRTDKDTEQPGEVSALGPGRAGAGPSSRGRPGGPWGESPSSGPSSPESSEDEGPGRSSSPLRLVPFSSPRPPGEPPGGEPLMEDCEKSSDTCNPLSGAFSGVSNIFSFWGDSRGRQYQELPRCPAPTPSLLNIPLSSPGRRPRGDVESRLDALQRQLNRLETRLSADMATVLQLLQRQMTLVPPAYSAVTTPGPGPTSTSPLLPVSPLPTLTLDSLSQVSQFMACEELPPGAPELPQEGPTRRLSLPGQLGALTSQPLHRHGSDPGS

Compound `COc1ccc(CCN2CCC(Nc3nc4ccccc4n3Cc3ccc(F)cc3)CC2)cc1` [AST, astemizole, reference compound] has an inhibition at 1 µM [1] of 0%, an inhibition at 5 µM [1] of 11% and an inhibition at 1 µM [2] of 5%. For the same compound, the inhibition at 5 µM [2] was 61%, the inhibition at 1 µM ([3]; read-out: Late gametocytes (LG) % activity, 1.0 µM) was 13% and the inhibition at 5 µM ([3]; read-out: Late gametocytes (LG) % activity, 5.0 µM) was 52%.

For `CCN(CC)CCCC(C)Nc1ccnc2cc(Cl)ccc12` (stereo not drawn) [CQ, chloroquine], the “MSD (mean survival days)” value (P. berghei) was 24 days.

With `FC1CN(CCc2ccc(-c3noc(C(F)(F)F)n3)cc2)CCC1Nc1nc2ccccc2[nH]1` (stereo not drawn) [Compound 7] the solubility at 2 h ([4]; PBS buffer) was 120 µM (≈ 56.9 µg/mL), the inhibition at 1 µM [1] was 10.9 ± 2.3% and the inhibition at 5 µM [1] was 37.8 ± 0.5%. For the same compound, the IC50 ([1]; NF54, read-out: gametocytes IC50, late-stage (PfLGc / PfLG)) was 8000 nM, the inhibition at 1 µM [2] was 0% and the inhibition at 5 µM [2] was 27.6 ± 0.8%. The IC50 ([2]; NF54, read-out: gametocytes IC50, immature-stage (PfiGc / PfEG)) was 8160 nM, the IC50 at 4 min (hERG K+ channel; pH 7.4, QPatch, CHO K1 cells expressing hERG) was 980 nM and the selectivity ratio at 4 min (hERG K+ channel; pH 7.4, read-out: hERG SI (selectivity index = hERG IC50/PfNF54 IC50)) was 4.47.

With `F[C@H]1CN(CCc2ccc(-c3noc(C(F)(F)F)n3)cc2)CC[C@@H]1Nc1nc2ccccc2[nH]1` [Compound 8] the solubility at 2 h [4] was 100 µM (≈ 47.4 µg/mL), the “fold improvement of antiplasmodium activity over 7” value ([5]; PfNF54) was 1.5 fold and the IC50 ([5]; Plasmodium falciparum, NF54, read-out: PfIC50 NF54, sensitive NF54 strain) was 140 to 650 nM. The IC50 ([5]; read-out: PfIC50 NF54, sensitive NF54 strain) was 147 nM, the “RI (resistance index = PfK1 IC50/PfNF54 IC50)” value [6] was 2.61 and the IC50 ([6]; Plasmodium falciparum, K1, read-out: PfIC50 K1) was 384 nM.

`CN(C)c1ccc2nc3ccc(N(C)C)cc3[s+]c2c1` [methylene blue, reference compound] showed an IC50 ([2]; NF54, read-out: gametocytes IC50, immature-stage (PfiGc / PfEG), stages I–III, n = 1, technical triplicate) of 200 nM.

In the case of `COC(=O)[C@H]1[C@H]2C[C@@H]3c4[nH]c5cc(OC)ccc5c4CCN3C[C@H]2C[C@@H](OC(=O)c2cc(OC)c(OC)c(OC)c2)[C@@H]1OC` [reserpine, reference compound], the solubility at 2 h [4] is reported as < 10 µM.
